# Experimental data reported in patent US10239873B2, “7-azaindole or 4,7-diazaindole derivatives as IKKϵ epsilon and TBK1 inhibitor and pharmaceutical composition comprising same” (GREEN CROSS CORPORATION, priority 2015, dated 2019).
# pIC50: −log10 of the molar value.
# Target: T1, TBK1 (Homo sapiens, UniProt Q9UHD2)
# T1 construct: purchased Promega (Invitrogen is also named in the same bracket) V4158; PR8031B; V3991 (not assigned to the two kinases)
# T1 sequence (Q9UHD2 1-729): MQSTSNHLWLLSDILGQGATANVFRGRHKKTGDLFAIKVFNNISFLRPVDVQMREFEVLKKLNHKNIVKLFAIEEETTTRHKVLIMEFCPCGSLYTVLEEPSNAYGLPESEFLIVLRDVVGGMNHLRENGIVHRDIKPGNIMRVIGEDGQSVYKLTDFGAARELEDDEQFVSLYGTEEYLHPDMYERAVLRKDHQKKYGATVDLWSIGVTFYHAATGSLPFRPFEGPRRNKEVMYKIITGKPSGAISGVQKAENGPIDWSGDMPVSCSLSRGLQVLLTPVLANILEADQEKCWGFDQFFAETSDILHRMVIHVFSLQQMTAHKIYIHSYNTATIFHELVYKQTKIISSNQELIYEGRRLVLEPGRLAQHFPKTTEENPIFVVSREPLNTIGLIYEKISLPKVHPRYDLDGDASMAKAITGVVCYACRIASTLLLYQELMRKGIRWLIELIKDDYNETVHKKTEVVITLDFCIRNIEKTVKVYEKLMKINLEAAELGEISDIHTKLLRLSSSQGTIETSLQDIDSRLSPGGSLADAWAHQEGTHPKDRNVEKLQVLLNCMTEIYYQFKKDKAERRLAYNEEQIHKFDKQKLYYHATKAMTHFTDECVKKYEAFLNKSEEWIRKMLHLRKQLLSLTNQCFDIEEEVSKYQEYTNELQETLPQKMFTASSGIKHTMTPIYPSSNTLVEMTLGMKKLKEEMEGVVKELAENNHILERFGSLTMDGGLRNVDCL
# Assay: ADP-Glo Kinase Assay, inhibition activity on TBK1
# Format: biochemical
# Protocol: Inhibition activities on IKKϵ and TBK1 were evaluated using the compounds of Examples 1 to 250.
# The inhibition activities on IKKϵ and TBK1 were measured by a luminometer, IKKϵ/TBK1 Kinase Enzyme System (Promega, Ca# V4158; Invitrogen, PR8031B, Promega, Ca# V3991) and ADP-Glo Kinase Assay using ADP-Glo™ Kinase Analysis Kit (Promega, Ca# V9101) and a kinase reaction buffer [40 mM Tris(pH 7.5), 20 mM MgCl2, 0.1 mg/mL BSA] in accordance with the manufacturer's protocol.
row,SMILES,pIC50
1,"O=C(NC1CCCC1)N1CC=C(c2c[nH]c3ncc(-c4ccc(Cl)c(C(=O)N5CCOCC5)c4)cc23)CC1 [Example 76, 4-(5-(4-Chloro-3-(morpholine-4-carbonyl)phenyl)-1H-pyrrolo[2,3-b]pyridin-3-yl)-N-cyclopentyl-3,6-dihydropyridine-1(2H)-carboxamide 2,2,2-trifluoroacetate]",6.54
2,"O=C(NC1CCCC1)N1CC=C(c2c[nH]c3ncc(-c4cc(Cl)cc(C(=O)N5CCOCC5)c4)cc23)CC1 [Example 77, 4-(5-(3-Chloro-5-(morpholine-4-carbonyl)phenyl)-1H-pyrrolo[2,3-b]pyridin-3-yl)-N-cyclopentyl-3,6-dihydropyridine-1(2H)-carboxamide 2,2,2-trifluoroacetate]",6.60
3,"COc1ccc(-c2cnc3[nH]cc(C4=CCN(C(=O)NC5CCOC5)CC4)c3c2)cc1OC (centres unmarked) [Example 81, 4-(5-(3,4-Dimethoxyphenyl)-1H-pyrrolo[2,3-b]pyridin-3-yl)-N-(tetrahydrofuran-3-yl)-5,6-dihydropyridine-1(2H)-carboxamide]",7.68
4,"CS(=O)(=O)c1ccc(-c2cnc3[nH]cc(C4=CCN(C(=O)NC5CCOC5)CC4)c3c2)cc1 (centres unmarked) [Example 82, 4-(5-(4-(Methylsulfonyl)phenyl)-1H-pyrrolo[2,3-b]pyridin-3-yl)-N-(tetrahydrofuran-3-yl)-5,6-dihydropyridine-1(2H)-carboxamide]",7.46
5,"CN1CCN(Cc2ccc(-c3cnc4[nH]cc(C5=CCN(C(=O)NC6CCOC6)CC5)c4c3)s2)CC1 (centres unmarked) [Example 83, 4-(5-(5-((4-Methylpiperazin-1-yl)methyl)thiophen-2-yl)-1H-pyrrolo[2,3-b]pyridin-3-yl)-N-(tetrahydrofuran-3-yl)-5,6-dihydropyridine-1(2H)-carboxamide]",7.89
6,"O=C(NC1CCOC1)N1CC=C(c2c[nH]c3ncc(-c4ccc(CN5CCOCC5)s4)cc23)CC1 (centres unmarked) [Example 84, 4-(5-(5-(Morpholinomethyl)thiophen-2-yl)-1H-pyrrolo[2,3-b]pyridin-3-yl)-N-(tetrahydrofuran-3-yl)-5,6-dihydropyridine-1(2H)-carboxamide]",7.80
7,"COc1ccc(-c2cnc3[nH]cc(C4=CCN(C(=O)NC5CCCC5)CC4C)c3c2)cc1OC (centres unmarked) [Example 120, N-cyclopentyl-4-(5-(3,4-dimethoxyphenyl)-1H-pyrrolo[2,3-b]pyridin-3-yl)-5-methyl-5,6-dihydropyridine-1(2H)-carboxamide]",7.08
8,"CC1CN(C(=O)NC2CCCC2)CC=C1c1c[nH]c2ncc(-c3ccc(S(N)(=O)=O)cc3)cc12 (centres unmarked) [Example 124, N-cyclopentyl-5-methyl-4-(5-(4-sulfamoylphenyl)-1H-pyrrolo[2,3-b]pyridin-3-yl)-5,6-dihydropyridine-1(2H)-carboxamide]",7.29
9,"CCC1CN(C(=O)NC2CCCC2)CC=C1c1c[nH]c2ncc(-c3ccc(CN4CCOCC4)s3)cc12 (centres unmarked) [Example 128, N-cyclopentyl-5-ethyl-4-(5-(5-(morpholinomethyl)thiophen-2-yl)-1H-pyrrolo[2,3-b]pyridin-3-yl)-5,6-dihydropyridine-1(2H)-carboxamide]",7.15
10,"COc1ccc(-c2cnc3[nH]cc(C4=C(C)CN(C(=O)NC5CCCC5)CC4)c3c2)cc1OC [Example 129, N-cyclopentyl-4-(5-(3,4-dimethoxyphenyl)-1H-pyrrolo[2,3-b]pyridin-3-yl)-3-methyl-5,6-dihydropyridine-1(2H)-carboxamide]",6.62
11,"CC1=C(c2c[nH]c3ncc(-c4ccc(S(C)(=O)=O)cc4)cc23)CCN(C(=O)NC2CCCC2)C1 [Example 130, N-cyclopentyl-3-methyl-4-(5-(4-(methylsulfonyl)phenyl)-1H-pyrrolo[2,3-b]pyridin-3-yl)-5,6-dihydropyridine-1(2H)-carboxamide]",6.26
12,"CC1=C(c2c[nH]c3ncc(-c4ccc(CN5CCOCC5)s4)cc23)CCN(C(=O)NC2CCCC2)C1 [Example 131, N-cyclopentyl-3-methyl-4-(5-(5-(morpholinomethyl)thiophen-2-yl)-1H-pyrrolo[2,3-b]pyridin-3-yl)-5,6-dihydropyridine-1(2H)-carboxamide]",6.66
13,"CS(=O)(=O)c1ccc(-c2cnc3[nH]cc(C4=C(F)CN(C(=O)NC5CCCC5)CC4)c3c2)cc1 [Example 132, N-cyclopentyl-3-fluoro-4-(5-(4-(methylsulfonyl)phenyl)-1H-pyrrolo[2,3-b]pyridin-3-yl)-5,6-dihydropyridine-1(2H)-carboxamide]",6.60
14,"COc1ccc(-c2cnc3[nH]cc(C4=C(F)CN(C(=O)NC5CCCC5)CC4)c3c2)cc1OC [Example 133, N-cyclopentyl-4-(5-(3,4-dimethoxyphenyl)-1H-pyrrolo[2,3-b]pyridin-3-yl)-3-fluoro-5,6-dihydropyridine-1(2H)-carboxamide]",6.66
15,"CC(C)OC(=O)N1CC=C(c2c[nH]c3ncc(-c4cccc(S(N)(=O)=O)c4)cc23)CC1 [Example 146, Isopropyl 4-(5-(3-sulfamoylphenyl)-1H-pyrrolo[2,3-b]pyridin-3-yl)-5,6-dihydropyridine-1(2H)-carboxylate]",< 5.00
16,"COc1ccc(-c2cnc3[nH]cc(C4=CCN(C(=O)OC(C)C)CC4)c3c2)cc1OC [Example 147, Isopropyl 4-(5-(3,4-dimethoxyphenyl)-1H-pyrrolo[2,3-b]pyridin-3-yl)-5,6-dihydropyridine-1(2H)-carboxylate]",6.96
17,"CC(C)OC(=O)N1CC=C(c2c[nH]c3ncc(-c4cccc(S(C)(=O)=O)c4)cc23)CC1 [Example 149, Isopropyl 4-(5-(3-(methylsulfonyl)phenyl)-1H-pyrrolo[2,3-b]pyridin-3-yl)-5,6-dihydropyridine-1(2H)-carboxylate]",7.52
18,"CC(C)OC(=O)N1CC=C(c2c[nH]c3ncc(-c4ccc(S(N)(=O)=O)cc4)cc23)CC1 [Example 150, Isopropyl 4-(5-(4-sulfamoylphenyl)-1H-pyrrolo[2,3-b]pyridin-3-yl)-5,6-dihydropyridine-1(2H)-carboxylate]",7.44

# Next, values leading:
row,pIC50,SMILES
1,6.96,"COc1ccc(-c2cnc3[nH]cc(C4=CCN(C(=O)NN5CCCC5)CC4)c3c2)cc1OC [Example 85, 4-(5-(3,4-Dimethoxyphenyl)-1H-pyrrolo[2,3-b]pyridin-3-yl)-N-(pyrrolidin-1-yl)-5,6-dihydropyridine-1(2H)-carboxamide 2,2,2-trifluoroacetate]"
2,5.96,"CCOC(=O)N1CC=C(c2c[nH]c3ncccc23)CC1 [Example 135, Ethyl 4-(1H-pyrrolo[2,3-b]pyridin-3-yl)-5,6-dihydropyridine-1(2H)-carboxylate]"
3,4.97,"CCCCCOC(=O)N1CC=C(c2c[nH]c3ncccc23)CC1 [Example 136, Pentyl 4-(1H-pyrrolo[2,3-b]pyridin-3-yl)-5,6-dihydropyridine-1(2H)-carboxylate]"
4,6.36,"CCCOC(=O)N1CC=C(c2c[nH]c3ncccc23)CC1 [Example 137, Propyl 4-(1H-pyrrolo[2,3-b]pyridin-3-yl)-5,6-dihydropyridine-1(2H)-carboxylate]"
5,5.28,"CCCCOC(=O)N1CC=C(c2c[nH]c3ncccc23)CC1 [Example 138, Butyl 4-(1H-pyrrolo[2,3-b]pyridin-3-yl)-5,6-dihydropyridine-1(2H)-carboxylate]"
6,6.49,"CC(C)OC(=O)N1CC=C(c2c[nH]c3ncccc23)CC1 [Example 139, Isopropyl 4-(1H-pyrrolo[2,3-b]pyridin-3-yl)-5,6-dihydropyridine-1(2H)-carboxylate]"
7,6.51,"O=C(OC1CCCC1)N1CC=C(c2c[nH]c3ncccc23)CC1 [Example 140, Cyclopentyl 4-(1H-pyrrolo[2,3-b]pyridin-3-yl)-3,6-dihydropyridine-1(2H)-carboxylate]"
8,6.30,"CCC(C)OC(=O)N1CC=C(c2c[nH]c3ncccc23)CC1 (centres unmarked) [Example 141, sec-Butyl 4-(1H-pyrrolo[2,3-b]pyridin-3-yl)-5,6-dihydropyridine-1(2H)-carboxylate]"
9,5.52,"CCC(CC)OC(=O)N1CC=C(c2c[nH]c3ncccc23)CC1 [Example 142, Pentan-3-yl 4-(1H-pyrrolo[2,3-b]pyridin-3-yl)-5,6-dihydropyridine-1(2H)-carboxylate]"
10,6.00,"O=C(OC1CCCCC1)N1CC=C(c2c[nH]c3ncccc23)CC1 [Example 143, Cyclohexyl 4-(1H-pyrrolo[2,3-b]pyridin-3-yl)-5,6-dihydropyridine-1(2H)-carboxylate]"
11,6.34,"COc1ccc(-c2cnc3[nH]cc(C4=CCN(C(=O)OC5CCCC5)CC4)c3c2)cc1OC [Example 144, Cyclopentyl 4-(5-(3,4-dimethoxyphenyl)-1H-pyrrolo[2,3-b]pyridin-3-yl)-5,6-dihydropyridine-1(2H)-carboxylate]"
